Legend:
Melanocortin receptor 4 = Melanocortin receptor 4 (Homo sapiens, UniProt P32245); assay type: cell membranes, HEK293, Membrane; details: hek293; further: in other assays of this panel Not Active means under 50% inhibition at 10 µM
Progesterone receptor = target: T1, Progesterone receptor (Bos taurus, UniProt Q690N0); assay: DRUGMATRIX: Progesterone radioligand binding (ligand: [3H] R-5020); assay type: tissue-based, Uterus; details: Not Active = under 50% inhibition at 10 µM
T1 sequence (Q690N0 whole entry): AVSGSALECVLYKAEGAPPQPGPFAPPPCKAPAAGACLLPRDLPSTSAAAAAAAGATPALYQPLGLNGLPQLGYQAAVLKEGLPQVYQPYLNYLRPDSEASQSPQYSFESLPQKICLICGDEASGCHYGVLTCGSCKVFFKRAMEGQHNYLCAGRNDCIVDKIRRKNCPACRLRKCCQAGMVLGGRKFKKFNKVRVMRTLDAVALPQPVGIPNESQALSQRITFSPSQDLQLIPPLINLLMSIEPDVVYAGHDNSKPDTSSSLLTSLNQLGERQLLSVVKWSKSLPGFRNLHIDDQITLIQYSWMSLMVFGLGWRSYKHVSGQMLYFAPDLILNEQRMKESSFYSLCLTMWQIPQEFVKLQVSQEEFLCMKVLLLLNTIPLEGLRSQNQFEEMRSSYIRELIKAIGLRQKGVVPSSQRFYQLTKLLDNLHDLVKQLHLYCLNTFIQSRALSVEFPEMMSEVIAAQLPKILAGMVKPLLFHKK

Cytochrome P450 3A4 = Cytochrome P450 3A4 (Homo sapiens, UniProt P08684); details: bti-tn-5b1-4; further: in other assays of this panel Not Active means under 50% inhibition at 10 µM
Chain of Cytochrome P450 3A4 (P08684 whole entry): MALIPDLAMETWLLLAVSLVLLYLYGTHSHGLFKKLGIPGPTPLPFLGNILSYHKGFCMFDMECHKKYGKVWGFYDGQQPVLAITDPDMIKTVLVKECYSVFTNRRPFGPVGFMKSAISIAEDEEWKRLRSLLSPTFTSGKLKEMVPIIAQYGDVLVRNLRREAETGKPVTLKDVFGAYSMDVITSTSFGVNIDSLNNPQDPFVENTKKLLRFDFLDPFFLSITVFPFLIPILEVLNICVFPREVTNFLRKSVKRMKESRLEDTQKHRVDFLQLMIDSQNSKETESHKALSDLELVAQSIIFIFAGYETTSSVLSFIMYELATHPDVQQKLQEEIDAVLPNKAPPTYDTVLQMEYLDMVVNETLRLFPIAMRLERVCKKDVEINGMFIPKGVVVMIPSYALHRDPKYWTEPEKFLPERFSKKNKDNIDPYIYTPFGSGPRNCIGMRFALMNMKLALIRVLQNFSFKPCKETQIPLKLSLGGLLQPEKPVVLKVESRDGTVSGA

[1] = target: Matrix metalloproteinase-9 (Homo sapiens, UniProt P14780); assay: biochemical; assay type: cell-based;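 further: inhibition of isolated MMP-9 enzyme activity toward a synthetic peptide substrate, from the DrugMatrix protease screening panel; in other assays of this panel Not Active means under 50% inhibition at 10 µM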
Chain of Matrix metalloproteinase-9 (P14780 whole entry): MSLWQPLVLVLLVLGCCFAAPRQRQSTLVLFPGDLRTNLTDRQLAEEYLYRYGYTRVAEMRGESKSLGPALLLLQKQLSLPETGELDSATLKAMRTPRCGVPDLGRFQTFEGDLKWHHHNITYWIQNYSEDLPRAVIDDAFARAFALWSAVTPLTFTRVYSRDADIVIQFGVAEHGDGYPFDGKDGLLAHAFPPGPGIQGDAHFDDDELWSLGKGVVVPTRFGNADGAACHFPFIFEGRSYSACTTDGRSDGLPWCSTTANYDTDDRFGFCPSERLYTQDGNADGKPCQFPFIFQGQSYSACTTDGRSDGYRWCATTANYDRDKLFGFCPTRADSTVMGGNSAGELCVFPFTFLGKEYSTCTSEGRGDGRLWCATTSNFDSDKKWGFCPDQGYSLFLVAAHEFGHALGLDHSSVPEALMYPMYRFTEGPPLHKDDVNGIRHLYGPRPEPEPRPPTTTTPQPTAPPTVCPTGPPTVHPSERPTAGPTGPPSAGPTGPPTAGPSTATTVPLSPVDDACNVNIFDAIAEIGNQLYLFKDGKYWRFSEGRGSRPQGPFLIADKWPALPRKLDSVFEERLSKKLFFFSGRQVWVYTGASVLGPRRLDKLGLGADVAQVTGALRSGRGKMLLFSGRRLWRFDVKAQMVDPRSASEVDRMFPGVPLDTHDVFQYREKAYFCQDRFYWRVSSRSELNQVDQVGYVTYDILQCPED

Vasopressin V1a receptor = Vasopressin V1a receptor (Homo sapiens, UniProt P37288); assay type: cell membranes, Membrane; details: hek293; further: in other assays of this panel Not Active means under 50% inhibition at 10 µM
Chain of Vasopressin V1a receptor (P37288 whole entry): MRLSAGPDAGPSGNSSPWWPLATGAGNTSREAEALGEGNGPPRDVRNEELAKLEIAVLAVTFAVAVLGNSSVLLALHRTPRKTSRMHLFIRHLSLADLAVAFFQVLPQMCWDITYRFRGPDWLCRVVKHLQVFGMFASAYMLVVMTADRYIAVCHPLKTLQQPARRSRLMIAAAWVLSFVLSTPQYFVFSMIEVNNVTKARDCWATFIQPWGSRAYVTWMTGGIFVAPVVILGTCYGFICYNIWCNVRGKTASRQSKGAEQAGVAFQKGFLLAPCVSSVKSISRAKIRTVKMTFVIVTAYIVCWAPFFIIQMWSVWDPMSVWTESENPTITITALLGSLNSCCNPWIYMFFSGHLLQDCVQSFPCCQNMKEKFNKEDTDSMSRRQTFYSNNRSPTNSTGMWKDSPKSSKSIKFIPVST

[2] = target: 5-hydroxytryptamine receptor 6 (Homo sapiens, UniProt P50406); assay type: cell membranes, HeLa, Membrane; details: hela; further: in other assays of this panel Not Active means under 50% inhibition at 10 µM
Chain of 5-hydroxytryptamine receptor 6 (P50406 whole entry): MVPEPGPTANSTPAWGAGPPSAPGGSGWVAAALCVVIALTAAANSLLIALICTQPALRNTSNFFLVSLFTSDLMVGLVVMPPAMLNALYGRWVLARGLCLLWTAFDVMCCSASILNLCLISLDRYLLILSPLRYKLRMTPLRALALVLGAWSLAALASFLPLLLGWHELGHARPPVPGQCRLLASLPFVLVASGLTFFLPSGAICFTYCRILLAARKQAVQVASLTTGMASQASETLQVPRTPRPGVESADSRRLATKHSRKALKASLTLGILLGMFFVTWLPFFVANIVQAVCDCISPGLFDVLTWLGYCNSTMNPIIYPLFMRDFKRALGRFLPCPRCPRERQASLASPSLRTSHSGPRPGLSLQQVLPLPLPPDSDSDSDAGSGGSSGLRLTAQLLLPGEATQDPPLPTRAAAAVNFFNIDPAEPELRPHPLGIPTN

Chain of Melanocortin receptor 4 (P32245 whole entry): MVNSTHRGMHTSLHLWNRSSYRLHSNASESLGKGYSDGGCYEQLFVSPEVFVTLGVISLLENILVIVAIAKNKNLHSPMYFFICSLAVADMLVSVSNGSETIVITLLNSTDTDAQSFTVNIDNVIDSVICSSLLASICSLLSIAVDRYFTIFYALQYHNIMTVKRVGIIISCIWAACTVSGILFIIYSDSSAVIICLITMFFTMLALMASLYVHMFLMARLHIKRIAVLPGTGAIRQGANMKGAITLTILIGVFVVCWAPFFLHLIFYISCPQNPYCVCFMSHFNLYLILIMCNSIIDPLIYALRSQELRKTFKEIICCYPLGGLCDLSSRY

COc1c2occc2cc2ccc(=O)oc12 [METHOXSALEN]
Not Active: IC50 (Melanocortin receptor 4) | IC50 (Progesterone receptor) | IC50 (Cytochrome P450 3A4) | Ki (Cytochrome P450 3A4) | IC50 [1] | IC50 (Vasopressin V1a receptor) | IC50 [2]

C[C@H]1C[C@@H]2[C@H]([C@@H](O)C[C@@]3(C)[C@H]2CC[C@]3(O)C(=O)CO)[C@@]2(C)C=CC(=O)C=C12 [METHYLPREDNISOLONE]
Not Active: IC50 (Melanocortin receptor 4) | IC50 (Progesterone receptor) | IC50 (Cytochrome P450 3A4) | Ki (Cytochrome P450 3A4) | IC50 [1] | IC50 (Vasopressin V1a receptor) | IC50 [2]

Cc1cccc(C)c1OCC(C)N (stereo not given) [MEXILETINE]
Not Active: IC50 (Melanocortin receptor 4) | IC50 (Progesterone receptor) | IC50 (Cytochrome P450 3A4) | Ki (Cytochrome P450 3A4) | IC50 [1] | IC50 (Vasopressin V1a receptor) | IC50 [2]

Nc1cc(N2CCCCC2)nc(N)[n+]1[O-] [MINOXIDIL]
Not Active: IC50 (Melanocortin receptor 4) | IC50 (Progesterone receptor) | IC50 (Cytochrome P450 3A4) | Ki (Cytochrome P450 3A4) | IC50 [1] | IC50 (Vasopressin V1a receptor) | IC50 [2]

CO[C@H]1/C=C/O[C@@]2(C)Oc3c(C)c(O)c4c(O)c(c(/C=N/N5CCN(C6CCCC6)CC5)c(O)c4c3C2=O)NC(=O)/C(C)=C\C=C\[C@H](C)[C@H](O)[C@@H](C)[C@@H](O)[C@@H](C)[C@H](OC(C)=O)[C@@H]1C [RIFAPENTINE]
Not Active: IC50 (Melanocortin receptor 4) | IC50 (Progesterone receptor) | IC50 [1] | IC50 (Vasopressin V1a receptor) | IC50 [2]

CCCCOc1cc(CC2CNC(=O)N2)ccc1OC (stereo not given) [RO-201724]
Not Active: IC50 (Melanocortin receptor 4) | IC50 (Progesterone receptor) | IC50 (Cytochrome P450 3A4) | Ki (Cytochrome P450 3A4) | IC50 [1] | IC50 (Vasopressin V1a receptor) | IC50 [2]

CC[C@@H](C(=O)[C@@H](C)[C@@H](O)[C@H](C)[C@@H]1O[C@@H]([C@@H](CC)C(=O)O)CC[C@@H]1C)[C@H]1O[C@]2(C=C[C@@H](O)[C@]3(CC[C@@](C)([C@H]4CC[C@](O)(CC)[C@H](C)O4)O3)O2)[C@H](C)C[C@@H]1C [SALINOMYCIN]
Not Active: IC50 (Melanocortin receptor 4) | IC50 (Progesterone receptor) | IC50 (Cytochrome P450 3A4) | Ki (Cytochrome P450 3A4) | IC50 [1] | IC50 (Vasopressin V1a receptor) | IC50 [2]

O=C(Oc1ccccc1C(=O)O)c1ccccc1O [SALSALATE]
Not Active: IC50 (Melanocortin receptor 4) | IC50 (Progesterone receptor) | IC50 (Cytochrome P450 3A4) | Ki (Cytochrome P450 3A4) | IC50 [1] | IC50 (Vasopressin V1a receptor) | IC50 [2]

O=C(O)c1cn(-c2ccc(F)cc2)c2cc(N3CCNCC3)c(F)cc2c1=O [SARAFLOXACIN]
Not Active: IC50 (Melanocortin receptor 4) | IC50 (Progesterone receptor) | IC50 (Cytochrome P450 3A4) | Ki (Cytochrome P450 3A4) | IC50 [1] | IC50 (Vasopressin V1a receptor) | IC50 [2]

CN[C@H]1CC[C@@H](c2ccc(Cl)c(Cl)c2)c2ccccc21 [SERTRALINE]
Not Active: IC50 (Melanocortin receptor 4) | IC50 (Progesterone receptor) | IC50 (Cytochrome P450 3A4) | Ki (Cytochrome P450 3A4) | IC50 [1] | IC50 (Vasopressin V1a receptor) | IC50 [2]

CC(C)NCC(O)c1ccc(NS(C)(=O)=O)cc1 (stereo not given) [SOTALOL]
Not Active: IC50 (Melanocortin receptor 4) | IC50 (Progesterone receptor) | IC50 (Cytochrome P450 3A4) | Ki (Cytochrome P450 3A4) | IC50 [1] | IC50 (Vasopressin V1a receptor) | IC50 [2]

O.O.O.O.O.O.[Cl-].[Cl-].[Sr+2] [STRONTIUM CHLORIDE HEXAHYDRATE]
Not Active: IC50 (Melanocortin receptor 4) | IC50 (Progesterone receptor) | IC50 (Cytochrome P450 3A4) | Ki (Cytochrome P450 3A4) | IC50 [1] | IC50 (Vasopressin V1a receptor) | IC50 [2]

O=C1C(CC[S+]([O-])c2ccccc2)C(=O)N(c2ccccc2)N1c1ccccc1 (stereo not given) [SULFINPYRAZONE]
Not Active: IC50 (Melanocortin receptor 4) | IC50 (Progesterone receptor) | IC50 (Cytochrome P450 3A4) | Ki (Cytochrome P450 3A4) | IC50 [1] | IC50 (Vasopressin V1a receptor) | IC50 [2]

NC(=O)N1C(=O)/C(=C(\O)c2cccs2)c2cc(Cl)ccc21 [TENIDAP]
Not Active: IC50 (Melanocortin receptor 4) | IC50 (Progesterone receptor) | IC50 (Cytochrome P450 3A4) | Ki (Cytochrome P450 3A4) | IC50 [1] | IC50 (Vasopressin V1a receptor) | IC50 [2]

COc1cc2nc(N3CCN(C(=O)C4CCCO4)CC3)nc(N)c2cc1OC (stereo not given) [TERAZOSIN]
Not Active: IC50 (Melanocortin receptor 4) | IC50 [1] | IC50 (Vasopressin V1a receptor) | IC50 [2]

CN(C/C=C/C#CC(C)(C)C)Cc1cccc2ccccc12 [TERBINAFINE]
Not Active: IC50 (Melanocortin receptor 4) | IC50 (Progesterone receptor) | IC50 [1] | IC50 (Vasopressin V1a receptor) | IC50 [2]

CCCCNc1ccc(C(=O)OCCN(C)C)cc1 [TETRACAINE]
Not Active: IC50 (Melanocortin receptor 4) | IC50 (Progesterone receptor) | IC50 [1] | IC50 (Vasopressin V1a receptor) | IC50 [2]

— ChEMBL document CHEMBL1909046, “DrugMatrix in vitro pharmacology data”
